Measurements: US20160355483A1, “COMPOUND BINDING TO PPARG BUT NOT ACTING AS PROMOTER AND PHARMACEUTICAL COMPOSITION FOR TREATING PPARG-RELATED DISEASES CONTAINING SAME AS ACTIVE INGREDIENT” (Hyundai Pharm Co., Ltd., priority 2014, published 2016)
“Also recorded” adds a separate entry of the source.

How the values were obtained:
[1] = molecular target: T1, PPARG (peroxisome proliferator activated receptor-gamma), GST-PPARG-LBD (Homo sapiens, UniProt P37231); assay: LanthaScreen TR-FRET PPARG Competitive Binding Assay; set-up: key: “+” indicates the degree of the binding activity, and as the number of “+” increases, the binding activity is stronger; ++: “+” indicates the degree of the binding activity, and as the number of “+” increases, the binding activity is stronger; +++: “+” indicates the degree of the binding activity, and as the number of “+” increases, the binding activity is stronger; ++++: “+” indicates the degree of the binding activity, and as the number of “+” increases, the binding activity is stronger; conditions: degree of binding activity
T1 construct: 15 μL of 5 nM GST-PPARG-LBD and 5 nM Tb-GST-antibody were added; purchased Invitrogen PV4894
T1 sequence (P37231 238-503 limits assumed): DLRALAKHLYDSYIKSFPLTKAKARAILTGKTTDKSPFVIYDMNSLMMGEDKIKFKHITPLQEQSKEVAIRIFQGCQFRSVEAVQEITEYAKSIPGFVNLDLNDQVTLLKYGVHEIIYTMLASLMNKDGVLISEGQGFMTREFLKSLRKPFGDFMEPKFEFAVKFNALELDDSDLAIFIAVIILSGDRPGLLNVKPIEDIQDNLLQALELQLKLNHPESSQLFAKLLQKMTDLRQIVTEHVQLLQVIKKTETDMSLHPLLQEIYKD
Method in brief: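 Ratio of 518 nm to 488 nm time-resolved emission after a 1 h room-temperature incubation, in competition format with GST-PPARG ligand-binding domain. Values are expressed as 100% minus compound-to-vehicle ratio and related to rosiglitazone binding.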

[2] = molecular target: T2, CYP1A2 (Homo sapiens, UniProt P05177); assay: CYP (cytochrome P450)-suppressing effect, BD GENTEST kit; type: in vitro ADME
T2 construct: purchased BD GENTEST 459100
T2 sequence (P05177 1-516): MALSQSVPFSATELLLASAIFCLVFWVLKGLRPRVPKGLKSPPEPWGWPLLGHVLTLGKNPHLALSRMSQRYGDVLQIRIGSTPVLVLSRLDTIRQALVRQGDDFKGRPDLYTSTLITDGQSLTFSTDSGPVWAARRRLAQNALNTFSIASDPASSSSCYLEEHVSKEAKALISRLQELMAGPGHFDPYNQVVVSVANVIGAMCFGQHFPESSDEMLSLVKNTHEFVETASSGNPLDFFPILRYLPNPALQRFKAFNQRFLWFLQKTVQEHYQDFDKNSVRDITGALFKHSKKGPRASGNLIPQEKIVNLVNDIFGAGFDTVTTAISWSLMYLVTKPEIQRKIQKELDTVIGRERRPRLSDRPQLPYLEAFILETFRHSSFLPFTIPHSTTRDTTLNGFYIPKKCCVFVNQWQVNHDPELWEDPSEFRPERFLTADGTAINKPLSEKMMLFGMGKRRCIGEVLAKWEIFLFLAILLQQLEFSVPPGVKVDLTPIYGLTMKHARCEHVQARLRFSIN
Description: (§1) To evaluate the CYP (cytochrome P450)-suppressing activity of the compounds prepared in the examples of the invention, the following experiment was performed.
(§2) The analysis of CYP1A2, 2C19, and 3A4 suppressing activity was performed by using a BD GENTEST (459100, 459400, and 459500) kit, and the analysis of CYP 2C9- and 2D6-suppressing activity was performed by using an Invitrogen (P2861 and P2862) kit.
(§3) When the BD GENTEST kit was used, the compounds of the present invention were diluted in acetonitrile at the final concentration of 50×. The NADPH-Cofactor mix was prepared by diluting the Cofactor, G6PDH, and control protein provided by the kit in DW according to the instructed concentration. 4 μL of the compound of the example (50×) was mixed with 96 μL of NADPH-Cofactor mix in a 96-well plate, followed by pre-incubation in a 37° C. incubator for 10 minutes.
(§4) The enzyme/substrate mixture was diluted in the buffer (0.5 M potassium phosphate, pH 7.4) provided by the kit according to the instructed concentration. Each CYP450 enzyme substrate was diluted in DW at a desired concentration respectively according to the corresponding types of CYP450. 100 μL of the enzyme/substrate mixture was loaded in the plate when the pre-incubation had been completed, followed by reaction in a 37° C. incubator for 15 minutes (1A2) and 30 minutes (3A4 and 2C19). Upon completion of the reaction, the mixture was transferred to a white plate, and the fluorescent wavelength was measured with a microplate reader (1A2, 2C19 excitation 410 nm, emission 460 nm; 3A4, excitation 409 nm, emission 530 nm).
(§5) The test results were calculated by the following formula:
(§6) (1−(fluorescence value of the test material/fluorescence value of the vehicle))×100%.

[3] = molecular target: T3, CYP 2C19 (Homo sapiens, UniProt P33261); assay: as above; type: in vitro ADME
T3 construct: purchased BD GENTEST 459400
T3 sequence (P33261 whole entry): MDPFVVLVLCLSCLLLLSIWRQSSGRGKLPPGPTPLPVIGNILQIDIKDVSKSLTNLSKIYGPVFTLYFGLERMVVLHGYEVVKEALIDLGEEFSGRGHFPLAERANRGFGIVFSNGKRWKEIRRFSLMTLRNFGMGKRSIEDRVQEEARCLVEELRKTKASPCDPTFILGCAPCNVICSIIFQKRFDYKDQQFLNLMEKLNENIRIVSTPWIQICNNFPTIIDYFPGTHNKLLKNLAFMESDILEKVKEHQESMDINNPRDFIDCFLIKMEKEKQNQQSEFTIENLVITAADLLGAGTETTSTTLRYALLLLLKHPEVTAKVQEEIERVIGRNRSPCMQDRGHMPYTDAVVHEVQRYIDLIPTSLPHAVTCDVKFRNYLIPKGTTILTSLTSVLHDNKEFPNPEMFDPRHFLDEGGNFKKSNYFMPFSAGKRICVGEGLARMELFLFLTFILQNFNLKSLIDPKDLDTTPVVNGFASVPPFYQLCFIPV
Description: as §1, §2, §3, §4, §5, §6

[4] = molecular target: T4, CYP 3A4 (Homo sapiens, UniProt P08684); assay: as above; type: in vitro ADME
T4 construct: purchased BD GENTEST 459500
T4 sequence (P08684 whole entry): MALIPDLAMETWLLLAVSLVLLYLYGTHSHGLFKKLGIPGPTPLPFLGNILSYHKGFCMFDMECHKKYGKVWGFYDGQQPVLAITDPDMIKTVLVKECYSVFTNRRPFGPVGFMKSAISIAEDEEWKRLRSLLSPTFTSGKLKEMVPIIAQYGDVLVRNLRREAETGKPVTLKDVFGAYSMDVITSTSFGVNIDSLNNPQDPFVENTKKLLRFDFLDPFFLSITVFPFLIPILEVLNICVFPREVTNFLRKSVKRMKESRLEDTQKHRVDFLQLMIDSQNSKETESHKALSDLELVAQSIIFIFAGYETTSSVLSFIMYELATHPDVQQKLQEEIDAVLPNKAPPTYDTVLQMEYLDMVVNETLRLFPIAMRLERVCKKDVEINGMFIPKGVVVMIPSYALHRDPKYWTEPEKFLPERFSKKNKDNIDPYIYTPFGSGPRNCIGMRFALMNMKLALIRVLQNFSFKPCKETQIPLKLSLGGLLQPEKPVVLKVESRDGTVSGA
Description: as §1, §2, §3, §4, §5, §6

[5] = molecular target: T5, CYP 2D6 (Homo sapiens, UniProt P10635); assay: CYP (cytochrome P450)-suppressing effect, Invitrogen Vivid kit; type: in vitro ADME
T5 construct: purchased Invitrogen P2862
T5 sequence (P10635 whole entry): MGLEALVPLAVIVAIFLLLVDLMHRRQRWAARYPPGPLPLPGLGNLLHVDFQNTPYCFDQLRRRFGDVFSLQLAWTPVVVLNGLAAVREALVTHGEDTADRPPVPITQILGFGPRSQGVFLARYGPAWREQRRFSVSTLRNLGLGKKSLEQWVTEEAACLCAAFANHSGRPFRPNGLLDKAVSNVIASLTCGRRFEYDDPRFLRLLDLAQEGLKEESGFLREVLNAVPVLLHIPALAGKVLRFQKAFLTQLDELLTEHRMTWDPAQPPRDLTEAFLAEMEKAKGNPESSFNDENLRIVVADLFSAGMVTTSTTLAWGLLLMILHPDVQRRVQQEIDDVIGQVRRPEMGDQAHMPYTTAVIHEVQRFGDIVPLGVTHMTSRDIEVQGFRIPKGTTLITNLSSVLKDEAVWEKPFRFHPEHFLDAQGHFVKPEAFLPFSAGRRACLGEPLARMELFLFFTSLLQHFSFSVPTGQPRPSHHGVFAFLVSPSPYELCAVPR
Description: as §1, §2
(§7) When the Invitrogen kit was used, the compounds of the present invention were diluted in Vivid CYP450 reaction buffer (1×) at the final concentration of 2.5×. The P450 BACULOSOMES sample and Regeneration system (100×) were diluted in Vivid CYP450 reaction buffer (1×) at different proper concentrations. 80 μL of the compound of the invention (2.5×) and […] of the diluted P450 BACULOSOMES sample mixture were mixed in a U-bottom 96-well plate, followed by pre-incubation for 10 minutes. Vivid CYP450 Substrate and NADP+ (100×) were diluted in Vivid CYP450 reaction buffer (1×) at a desired concentration, respectively, according to their corresponding types of CYP450 and substrates. 20 μL of Substrate-NADP+ mix was loaded in the plate when the pre-incubation had been completed, followed by reaction for 1 hour. Upon completion of the reaction, the reaction mixture was transferred in a white plate and fluorescent wavelength was measured with a microplate reader (2C9 excitation 415 nm, emission 460 nm, 2D6 excitation 400 nm, emission 502 nm).
as §5, §6

[6] = molecular target: T6, CYP 2C9 (Homo sapiens, UniProt P11712); assay: as above; type: in vitro ADME
T6 construct: purchased Invitrogen P2861
T6 sequence (P11712 whole entry): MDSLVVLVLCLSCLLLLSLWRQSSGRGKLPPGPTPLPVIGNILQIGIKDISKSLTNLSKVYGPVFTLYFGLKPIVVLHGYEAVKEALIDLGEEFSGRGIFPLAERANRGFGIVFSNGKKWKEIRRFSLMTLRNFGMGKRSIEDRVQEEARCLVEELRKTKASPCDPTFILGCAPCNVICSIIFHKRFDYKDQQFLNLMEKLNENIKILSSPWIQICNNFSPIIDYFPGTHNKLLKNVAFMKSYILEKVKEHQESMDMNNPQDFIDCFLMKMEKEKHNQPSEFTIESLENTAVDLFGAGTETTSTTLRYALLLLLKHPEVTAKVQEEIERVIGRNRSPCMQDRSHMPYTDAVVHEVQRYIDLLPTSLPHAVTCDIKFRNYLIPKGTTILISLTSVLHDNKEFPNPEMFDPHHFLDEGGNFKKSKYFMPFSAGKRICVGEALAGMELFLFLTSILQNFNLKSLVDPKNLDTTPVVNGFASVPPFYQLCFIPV
Description: as §1, §2, §7, §5, §6

[7] = tested on: CYP isozymes 1A2, 2C9, 2C19, and 2D6; assay: CYP suppression compared with comparative examples (Table 3); type: in vitro ADME; conditions: result in words
Description: as §1, §2, §7, §3, §4, §5, §6

Row | SMILES | Binding assay (1 μLM) [1] | CYP(10 μL, %) 1A2 [2] [%] | CYP(10 μL, %) 2C19 [3] [%] | CYP(10 μL, %) 3A4 [4] [%] | CYP(10 μL, %) 2D6 [5] [%] | CYP(10 μL, %) 2C9 [6] [%] | suppression of CYP isozymes 1A2, 2C9, 2C19, and 2D6 compared with SR1664 and SR1824 [7]
1 | C[C@H](NC(=O)c1ccc2c(c1)CCCN2Cc1ccc(-c2ccccc2C(=O)O)cc1F)c1ccc(C#N)cc1 [Example 110, (S)-4′-((6-((1-(4-cyanophenyl)ethyl)carbamoyl)-3,4-dihydroquinoline-1(2H)-yl)methyl)-3′-fluoro-[1,1′-biphenyl]-2-carboxylic acid] | +++ | 97.28 | 69.53 | 53.03 | 88.44 | 55.18 | less than the compounds of the comparative examples; also recorded: less strongly than the compounds of the Comparative Examples
2 | C[C@H](NC(=O)c1ccc2c(c1)CCCN2Cc1ccc(-c2ccccc2C(N)=O)cc1F)c1ccc([N+](=O)[O-])cc1 [Example 113, (S)-1-((2′-carbamoyl-3-fluoro-[1,1′-biphenyl]-4-yl)methyl)-N-(1-(4-nitrophenyl)ethyl)-1,2,3,4-tetrahydroquinoline-6-carboxamide] | ++ | 97.27 | 54.70 | 85.01 | 78.65 | 67.73 | less than the compounds of the comparative examples; also recorded: less strongly than the compounds of the Comparative Examples
3 | C[C@H](NC(=O)c1ccc2c(c1)CCCN2Cc1ccc(-c2ccccc2C(N)=O)cc1F)c1ccc2ccccc2c1 [Example 115, (S)-1-((2′-carbamoyl-3-fluoro-[1,1′-biphenyl]-4-yl)methyl)-N-(1-(naphthalene-2-yl)ethyl)-1,2,3,4-tetrahydroquinoline-6-carboxamide] | +++ | 97.62 | 59.33 | 77.73 | 95.56 | 63.87 | less than the compounds of the comparative examples; also recorded: less strongly than the compounds of the Comparative Examples

The next lines start with results.

Row | Binding assay (1 μLM) [1] | CYP(10 μL, %) 1A2 [2] [%] | CYP(10 μL, %) 2C19 [3] [%] | CYP(10 μL, %) 3A4 [4] [%] | CYP(10 μL, %) 2D6 [5] [%] | CYP(10 μL, %) 2C9 [6] [%] | SMILES | suppression of CYP isozymes 1A2, 2C9, 2C19, and 2D6 compared with SR1664 and SR1824 [7]
4 | + | 101.50 | 74.03 | 71.21 | 94.83 | 52.02 | C[C@H](NC(=O)c1ccc2c(c1)CCCN2Cc1cccc(-c2ccccc2C(=O)O)c1)c1ccc(C#N)cc1 [Example 118, (S)-3′-((6-((1-(4-cyanophenyl)ethyl)carbamoyl)-3,4-dihydroquinoline-1(2H)-yl)methyl)-[1,1′-biphenyl]-2-carboxylic acid] | less than the compounds of the comparative examples; also recorded: less strongly than the compounds of the Comparative Examples
5 | +++ | 102.45 | 58.85 | 52.65 | 82.48 | 59.36 | C[C@H](NC(=O)c1ccc2c(c1)CCCN2Cc1cccc(-c2ccccc2C(N)=O)c1)c1ccc([N+](=O)[O-])cc1 [Example 123, (S)-1-((2′-carbamoyl-[1,1′-biphenyl]-3-yl)methyl)-N-(1-(4-nitrophenyl)ethyl)-1,2,3,4-tetrahydroquinoline-6-carboxamide] | less than the compounds of the comparative examples; also recorded: less strongly than the compounds of the Comparative Examples
